Tested on: 3′-Fl-AM1A-(18)-Rhd (RNA, riboswitch) GAGGGUGGAACCGCGCUUCGGCGUCCCUC
Assay: FRET binding titration
Details: 50 mM NaCl, 5 mM MgCl2

O=C(Cc1ccccc1)OCC1OC(=O)NC1CN1CCN(c2ccccc2)CC1 (racemic)
Kd: > 100 µM

From article PMC3466060 (2011)
